This is an account of results in ChEMBL document CHEMBL4190272, “Norditerpenoids and Dinorditerpenoids from the Seeds of Podocarpus nagi as Cytotoxic Agents and Autophagy Inducers” (J Nat Prod, 2017).

Calls of active or inactive are those of the source. The rule behind the calls is not given here.

For assay [1], the system named is HEY. Nature of the assay: Cytotoxicity against human HEY cells up to 10 uM after 48 hrs by MTT assay. Format: functional, cell-based.
The test system of assay [2] is A2780. Description: Cytotoxicity against human A2780 cells up to 10 uM after 48 hrs by MTT assay. Format: functional, cell-based. (Formazan colour is commonly taken as a measure of viable cells.)
The subject of assay [3] is A2780. Description: Induction of autophagy in human A2780 cells assessed as increase in LC3-2 expression in presence of JNK/c-Jun pathway inhibitor SP600125 by Western blot analysis. Format: functional, cell-based. In general terms: In western blotting, separated proteins are transferred to a membrane and probed.
Assay [4] relates to A2780. Description: Induction of autophagy in human A2780 cells expressing mRFP-GFP-LC3 plasmid assessed as increase in LC3 punctum formation at 10 uM after 24 hrs by confocal microscopic analysis. In kind it is functional, cell-based.
In assay [5] the target is T1, c-Jun N-terminal kinase, JNK (Homo sapiens) (UniProt P45983+P53779+P45984). Nature of the assay: Activation of JNK in human A2780 cells assessed as increase in phosphorylated c-jun expression up to 10 uM after 24 hrs by Western blot analysis. In kind it is cell-based.
Assay [6] concerns HEY. Description: Induction of autophagy in human HEY cells assessed as increase in LC3-2 expression by Western blot analysis. In kind it is functional, cell-based.
Assay [7] deals with T1, c-Jun N-terminal kinase, JNK (Homo sapiens). Nature of the assay: Activation of JNK in human A2780 cells assessed as increase in c-jun expression up to 10 uM after 24 hrs by Western blot analysis. In kind it is cell-based.
Assay [8] shares this target. Nature of the assay: Activation of JNK phosphorylation in human A2780 cells up to 10 uM after 24 hrs by Western blot analysis. In kind it is cell-based.
Assay [9] concerns HEY. Description: Induction of autophagy in human HEY cells assessed as increase in LC3-2 expression up to 10 uM after 24 hrs by Western blot analysis. In kind it is functional, cell-based.
Assay [10] has as its system A2780. Description: cells. The following applies: Homo sapiens, A2780, 48 h.
Description: (§1) Cytotoxicity against human A2780 cells after 48 hrs by MTT assay
Assay [11] concerns A2780. Description: Induction of autophagy in human A2780 cells assessed as increase in LC3-2 expression by Western blot analysis. In kind it is functional, cell-based.
In assay [12] the target is T1, c-Jun N-terminal kinase, JNK (Homo sapiens). Description: Activation of JNK phosphorylation in human A2780 cells up to 10 uM after 24 hrs in presence of JNK/c-Jun pathway inhibitor SP600125 by Western blot analysis. Format: cell-based.
In assay [13] the test system is A2780. Description: Induction of autophagy in human A2780 cells assessed as increase in LC3-2 expression up to 10 uM after 24 hrs by Western blot analysis. Format: functional, cell-based.
Assay [14] addresses T1, c-Jun N-terminal kinase, JNK (Homo sapiens). Description: Activation of JNK in human A2780 cells assessed as increase in phosphorylated c-jun expression up to 10 uM after 24 hrs in presence of JNK/c-Jun pathway inhibitor SP600125 by Western blot analysis. In kind it is cell-based.
For assay [15], the system named is HEY. Nature of the assay: Cytotoxicity against human HEY cells after 48 hrs by MTT assay. In kind it is functional, cell-based.
Assay [16] deals with A2780. The following applies: Homo sapiens.
Description: as §1

Consider `CC(O)c1oc(=O)cc2c1C[C@H]1OC(=O)[C@@]3(C)[C@@H](O)[C@@H](O)[C@H](Cl)[C@@]2(C)[C@@H]13` (some centres not stated), for which the result in the assay on HEY [1] and in the assay on A2780 [2] was inactive.
In the case of `CC(O)c1oc(=O)cc2c1C[C@H]1OC(=O)[C@@]3(C)CC[C@@H](O)[C@@]2(C)[C@@H]13` (some centres not stated), the outcome with HEY [1] and in the assay with A2780 [2] was inactive.
The term IC50 denotes the concentration that gives 50% inhibition. Take `CCc1oc(=O)cc2c1C[C@H]1OC(=O)[C@@]3(C)C[C@@H](O)[C@@H](O)[C@@]2(C)[C@@H]13`: the result (in the assay on A2780 [3]; in [12]; in [14]) was inactive. For the same compound, the result (with A2780 [4]; in assay [5]; with HEY [6]; in [7]; in assay [8]; with HEY [9]) was Active. In addition, the outcome with A2780 [11] and in the assay on A2780 [13] was Active. Moreover, the IC50 in the assay on A2780 [10] and with HEY [15] was less than 2500 nM in each case.
Take `CC(C)c1oc(=O)cc2c1[C@@H](O)[C@H]1OC(=O)[C@@]3(C)CC(=O)[C@@H](O)[C@@]2(C)[C@@H]13`: the result in the assay on HEY [1] and in the assay with A2780 [2] was inactive.
As for `CCc1oc(=O)cc2c1C[C@H]1OC(=O)[C@@]3(C)CC[C@@H](O)[C@@]2(C)[C@@H]13`, the IC50 stood at 3800 nM in the assay with A2780 [10] and 6400 nM with HEY [15].
For `CCc1oc(=O)cc2c1C[C@H]1OC(=O)[C@@]3(C)[C@@H](O)C[C@@H](O)[C@@]2(C)[C@@H]13`, the result in the assay with HEY [1] and with A2780 [2] was inactive.
`CC(C)c1oc(=O)cc2c1[C@@H](O)[C@H]1OC(=O)[C@@]3(C)[C@@H](O)[C@H]4O[C@H]4[C@@]2(C)[C@@H]13`: the result in the assay on A2780 [16] and in the assay with HEY [15] was Active.
`CC(C)[C@H]1OC(=O)C=C2[C@@]13O[C@@H]3[C@H]1OC(=O)[C@@]3(C)CCC[C@@]2(C)[C@@H]13`: the result with A2780 [16] and in the assay on HEY [15] was Active.
`CC(C)c1oc(=O)cc2c1[C@@H](O)[C@H]1OC(=O)[C@@]3(C)C[C@@H](O)C[C@@]2(C)[C@@H]13`: the outcome in the assay with A2780 [16] and in the assay on HEY [15] was Active.
Turning to `CCc1oc(=O)cc2c1C[C@H]1OC(=O)[C@@]3(C)[C@@H](O)[C@@H](O)[C@H](O)[C@@]2(C)[C@@H]13`, the outcome in the assay on HEY [1] and with A2780 [2] was inactive.
In the case of `CCc1oc(=O)cc2c1C[C@H]1OC(=O)[C@@]3(C)[C@H](O)[C@H]4O[C@H]4[C@@]2(C)[C@@H]13`, the result in the assay with HEY [6], in the assay on A2780 [16], in the assay on A2780 [11] and in the assay on HEY [15] was Active.
Take `CC(O)c1oc(=O)cc2c1C[C@H]1OC(=O)[C@@]3(C)[C@H](O)[C@H]4O[C@H]4[C@@]2(C)[C@@H]13` (some centres not stated): the outcome in the assay with HEY [1] and with A2780 [2] was inactive.
In the case of `CC(=O)O[C@H]1C(=O)[C@@]2(C)[C@H]([C@H](OC(=O)c3ccccc3)[C@]3(O)C[C@H](OC(=O)[C@H](O)[C@@H](NC(=O)c4ccccc4)c4ccccc4)C(C)=C1C3(C)C)[C@]1(OC(C)=O)CO[C@@H]1C[C@@H]2O` [PACLITAXEL], the IC50 in the assay with A2780 [10] was found to be 164 nM; in the assay on HEY [15], 104 nM.
On to `CC(C)c1oc(=O)cc2c1[C@@H](O)[C@H]1OC(=O)[C@@]3(C)CC[C@@H](O)[C@@]2(C)[C@@H]13`, for which the outcome in the assay on A2780 [16] and in the assay with HEY [15] was Active.
Turning to `CCc1oc(=O)cc2c1[C@@H](O)[C@H]1OC(=O)[C@@]3(C)[C@@H](O)[C@H]4O[C@H]4[C@@]2(C)[C@@H]13`, the result in the assay on HEY [1] and in the assay on A2780 [2] was inactive.
For the compound `CC(C)c1oc(=O)cc2c1[C@@H](O)[C@H]1OC(=O)[C@@]3(C)C[C@@H](O)[C@@H](O)[C@@]2(C)[C@@H]13`, the outcome with A2780 [16] and with HEY [15] was Active.
For the compound `CCc1oc(=O)cc2c1C[C@H]1OC(=O)[C@@]3(C)[C@@H](O)[C@H]4O[C@H]4[C@@]2(C)[C@@H]13`, the outcome with A2780 [16] and in the assay with HEY [15] was Active.
